Measurements from ChEMBL document CHEMBL4321881 (J Med Chem, 2020).
In brackets after ≈: the same amount, converted by molar mass.

Assays:
[1] = Metabolic stability in human liver microsomes assessed as parent compound remaining after 30 mins; type: ADME, Microsome; settings: read-out: Stability
[2] = Solubility of the compound; type: physicochemical
[3] = Metabolic stability in mouse liver microsomes assessed as parent compound remaining after 30 mins; type: ADME, Microsome; settings: read-out: Stability
[4] = biological target: T1, Isocitrate dehydrogenase [NADP] cytoplasmic (Homo sapiens, UniProt O75874, R132H); test: Inhibition of IDH1 R132H mutant in human HCT116 cells assessed as reduction in 2-HG levels after 24 hrs by RapidFire high-throughput mass spectrometry assay; type: cell-based
Target sequence in this assay (O75874 whole entry R132H): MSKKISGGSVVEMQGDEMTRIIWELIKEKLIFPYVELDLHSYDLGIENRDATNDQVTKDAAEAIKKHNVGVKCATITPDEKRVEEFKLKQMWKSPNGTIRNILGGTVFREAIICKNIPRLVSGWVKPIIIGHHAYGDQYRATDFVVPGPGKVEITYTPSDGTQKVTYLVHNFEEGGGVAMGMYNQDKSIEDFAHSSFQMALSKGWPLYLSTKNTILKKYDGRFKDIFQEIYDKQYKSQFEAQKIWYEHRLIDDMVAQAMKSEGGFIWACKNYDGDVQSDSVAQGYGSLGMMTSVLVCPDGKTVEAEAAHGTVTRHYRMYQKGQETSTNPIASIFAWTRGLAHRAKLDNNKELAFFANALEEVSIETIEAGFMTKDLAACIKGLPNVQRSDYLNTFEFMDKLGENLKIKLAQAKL

[5] = biological target: T1, Isocitrate dehydrogenase [NADP] cytoplasmic; test: Inhibition of recombinant human Myc-DDK-tagged IDH1 R132H mutant using alpha-ketoglutarate as substrate preincubated for 15 mins followed by substrate and NADPH addition and measured after 45 mins by diaphorase/resazurin dye based assay
Target sequence in this assay (O75874 2-414 R132H limits assumed): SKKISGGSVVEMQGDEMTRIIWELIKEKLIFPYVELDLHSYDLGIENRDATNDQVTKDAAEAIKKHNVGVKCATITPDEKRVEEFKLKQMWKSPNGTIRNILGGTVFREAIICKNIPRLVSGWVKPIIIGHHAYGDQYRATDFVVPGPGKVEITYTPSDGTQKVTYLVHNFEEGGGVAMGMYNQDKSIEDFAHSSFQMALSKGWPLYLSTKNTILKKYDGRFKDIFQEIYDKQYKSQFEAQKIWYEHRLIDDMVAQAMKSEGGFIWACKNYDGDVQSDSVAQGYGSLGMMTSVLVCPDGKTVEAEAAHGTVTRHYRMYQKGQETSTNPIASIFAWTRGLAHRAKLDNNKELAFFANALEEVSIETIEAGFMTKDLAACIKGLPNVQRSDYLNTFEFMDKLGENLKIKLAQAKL

[6] = biological target: T2, Isocitrate dehydrogenase [NADP] cytoplasmic (Homo sapiens, UniProt O75874, R132C); test: Inhibition of recombinant human Myc-DDK-tagged IDH1 R132C mutant using alpha-ketoglutarate as substrate preincubated for 15 mins followed by substrate and NADPH addition and measured after 45 mins by diaphorase/resazurin dye based assay
Target sequence in this assay (O75874 2-414 R132C limits assumed): as the sequence (O75874 2-414 R132H limits assumed) above, with H131C counted along it

[7] = biological target: T2, Isocitrate dehydrogenase [NADP] cytoplasmic; test: Inhibition of IDH1 R132C mutant in human HCT116 cells assessed as reduction in 2-HG levels after 24 hrs by RapidFire high-throughput mass spectrometry assay; type: cell-based
Target sequence in this assay (O75874 whole entry R132C): as the sequence (O75874 whole entry R132H) above, with H132C counted along it

[8] = tested on: Mus musculus; test: In vivo inhibition of IDH1 R132H mutant in human HCT116 cells xenografted in BALB/c nude mouse assessed as reduction in tumor 2-HG level at 50 mg/kg, po administered at 12 hrs intervals for 3 times measured up to 24 hrs post-last dose by LC-MS analysis relative to control; type: functional; settings: HCT-116, po
[9] = Permeability of the compound by PAMPA; type: ADME; settings: read-out: permeability
[10] = Apparent permeability across basolateral to apical side in human Caco2 cells; type: ADME, cell-based; settings: caco-2
[11] = Free Cmax in CD1 mouse at 100 mg/kg, po administered as single dose; type: ADME, organism-based; settings: in vivo
[12] = Apparent permeability across apical to basolateral side in human Caco2 cells; type: ADME, cell-based; settings: caco-2
[13] = tested on: Mus musculus; test: In vivo inhibition of IDH1 R132C mutant in human HCT116 cells xenografted in po dosed BALB/c nude mouse assessed as reduction in tumor 2-HG level administered at 12 hrs intervals for 3 times measured up to 24 hrs post-last dose by LC-MS analysis; type: functional
[14] = Kinetic solubility of the compound at pH 7.4; type: physicochemical; settings: buffer, read-out: Kinetic_solubility
[15] = tested on: Mus musculus; test: In vivo inhibition of IDH1 R132C mutant in human HCT116 cells xenografted in BALB/c nude mouse assessed as reduction in tumor 2-HG level at 50 mg/kg, po administered at 12 hrs intervals for 3 times measured at 12 to 24 hrs post-last dose by LC-MS analysis relative to control; type: functional; settings: HCT-116, po
[16] = Time at which fCmax required to show >90% suppression of 2-HG level in human HCT116 cells xenografted BALB/c nude mouse in CD1 mouse at 100 mg/kg, po; type: ADME, organism-based; settings: in vivo
[17] = tested on: Mus musculus; test: In vivo inhibition of IDH1 R132H mutant in human HCT116 cells xenografted in po dosed BALB/c nude mouse assessed as reduction in tumor 2-HG level administered at 12 hrs intervals for 3 times measured up to 24 hrs post-last dose by LC-MS analysis; type: functional
[18] = Free Cmax in CD1 mouse at 100 mg/kg, po administered as single dose measured after 7 hrs; type: ADME, organism-based; settings: in vivo

remaining at 0.5 h [1] [%]	solubility [2] [µM]	remaining at 0.5 h [3] [%]	IC50 [5] [nM]	Compound	also measured
83	11.6 (≈ 4.46 µg/mL)	–	–	COc1cc2[nH]c(=O)c([C@H](C)Nc3ccc(C#N)n(C)c3=O)cc2cc1Cl	–
90	54 (≈ 17.1 µg/mL)	26	–	Cn1cccc(NCc2cc3cc(Cl)ccc3[nH]c2=O)c1=O	–
100	18 (≈ 6.71 µg/mL)	–	25	C[C@H](Nc1ccc(C#N)n(C)c1=O)c1cc2cc(Cl)c(F)cc2[nH]c1=O	IC50 [4]: 22 nM; IC50 [6]: 159 nM; IC50 [7]: 104 nM
100	2.21 (≈ 0.722 µg/mL)	86	64.7	N#Cc1ccc(NCc2cc3cc(Cl)ccc3[nH]c2=O)c(=O)[nH]1	–
78	56 (≈ 19.1 µg/mL)	7	–	O=c1[nH]c2ccc(Cl)cc2cc1CNc1cccn(C2CC2)c1=O	–
82	0.53 (≈ 0.225 µg/mL)	–	–	C[C@H](Nc1ccc(C#N)n(C)c1=O)c1cc2cc(Cl)c(OCC3CC3)cc2[nH]c1=O	–
85	< 0.1	67	160	Cn1c(C(F)(F)F)ccc(NCc2cc3cc(Cl)ccc3[nH]c2=O)c1=O	–
66	2.5 (≈ 1.15 µg/mL)	–	–	C[C@H](Nc1ccc(C#N)n(C)c1=O)c1cc2cc(Cl)c(OCc3ccccn3)cc2[nH]c1=O	–
70	1.6 (≈ 0.761 µg/mL)	–	–	C[C@H](Nc1ccc(C#N)n(C)c1=O)c1cc2cc(Cl)c(O[C@H](C)c3ccccn3)cc2[nH]c1=O	–
78	0.28 (≈ 0.0881 µg/mL)	19	> 25000	COc1cccc(NCc2cc3cc(Cl)ccc3[nH]c2=O)c1	–
99	94 (≈ 30.1 µg/mL)	83	25000	CN1CCCC(NCc2cc3cc(Cl)ccc3[nH]c2=O)C1=O (stereo unspecified)	–
99	0.295 (≈ 0.101 µg/mL)	73	–	Cn1c(C#N)ccc(NCc2cc3cc(Cl)ccc3[nH]c2=O)c1=O	–
72	10 (≈ 3.3 µg/mL)	7	–	CCn1cccc(NCc2cc3cc(Cl)ccc3[nH]c2=O)c1=O	–
100	34.5 (≈ 12.2 µg/mL)	92	–	C[C@H](Nc1ccc(C#N)n(C)c1=O)c1cc2cc(Cl)ccc2[nH]c1=O [OLUTASIDENIB]	inhibition in vivo at 50 mg/kg [8]: > 90%; Papp [9]: 19.9 ×10⁻⁶ cm/s; Papp [10]: 9.01 ×10⁻⁶ cm/s; fCmax [11]: 200 nM; Papp [12]: 12.12 ×10⁻⁶ cm/s; fIC50 [13]: 36 nM; solubility kinetic [14]: 35.4 µM (≈ 12.6 µg/mL); inhibition in vivo at 50 mg/kg [15]: > 90%; Time [16]: 7 h; fIC50 [17]: 26 nM; fCmax [18]: 130 nM
